{"source": "patent US20230055121A1", "about": "“AQUEOUS SUSPENSION COMPOSITION CONTAINING SIROLIMUS OR SALT THEREOF” (SANTEN PHARMACEUTICAL CO., LTD., priority 2019, published 2023)", "origin": "cited, not measured here"}
{"substance": "Sirolimus", "values": [{"measurement": "Solubility in water", "value": "almost insoluble in water"}]}
